What all share (type): cell-based
For assay [1], the system named is Leishmania donovani strain MHOM/ET/67/L82. Nature of the assay: Leishmaniasis macrophage in vitro screening model. As to conditions: amastigotes in murine macrophages, n=4. The method, then:
The Leishmania donovani strain MHOM/ET/67/L82 obtained from Dr. S. Croft, London) is used. The strain is maintained in the Syrian Golden hamster. Amastigotes are collected from the spleen of an infected hamster Amastigotes are grown in axenic culture at 37° C. in SM medium (Cunningham I., J. […] Primary peritoneal macrophages from NMRI mice are collected 1 day after a macrophage production stimulation with an i.p injection of 2 ml of a 2% potato starch suspension (FLUKA, Switzerland) All cultures and assays are done at 37° C. under an atmosphere of 5% CO2 in air. […] After use the stocks are kept at -20° C. For the assays, the compound is further diluted in serum-free culture medium and finally to the appropriate concentration in complete medium. Assays are performed in sterile 16-well chamber slides (LabTek, Nalgene/Nunc Int.) To each well 100 μl of a murine macrophage suspension (4×10^5/ml) in RPMI 1640 (containing bicarbonate and HEPES) supplemented with 10% heat inactivated fetal bovine serum is added. […] Infected and non-infected macrophages are counted for the control cultures and the ones exposed to the serial drug dilutions. The infection rates are determined. The results are expressed as % reduction in parasite burden compared to control wells, and the IC50 calculated by linear regression analysis. […]

For assay [2] the test system is unchanged. In words: Leishmania donovani axenic amastigote assay. Particulars: axenic amastigotes.
The subject of assay [3] is Trypanosoma brucei gambiense STIB 930. Nature of the assay: Trypanosoma brucei whole cell assay, secondary screen STIB 930.
Method: The bloodstream form trypomastigotes of strain b are maintained in MEM medium with Earle's salts supplemented with 25 mM HEPES, 1 g/l additional glucose, 1% MEM non-essential aminoacids (100×), 0.2 mM 2-mercaptoethanol, 2 mM Na-pyruvate, 0.1 mM hypoxanthine, 0.05 mM bathocuproine disulphonic acid, 0.15 mM L-cysteine and 15% heat inactivated pooled human serum.
Assays are performed in 96-well microtiter plates, each well containing 100 μl of culture medium with 8×10^3 bloodstream forms with or without a serial drug dilution. The highest concentration for the test compounds is 90 μg/ml. Seven 3-fold dilutions are used covering a range from 90 μg/ml to 0.123 μg/ml. […]
Assay [4] concerns Trypanosoma brucei rhodesiense STIB 900. Nature of the assay: Trypanosoma brucei whole cell assay, primary screen. Particulars: read-out: ICo. The method, then: The bloodstream form trypomastigotes of the strains a and c are maintained in MEM medium with Earle's salts supplemented with 25 mM HEPES, 1 g/l additional glucose, 1% MEM nonessential amino acids (100×), 0.2 mM 2-mercaptoethanol, 2 mM Na-pyruvate, 0.1 mM hypoxanthine and 15% heat inactivated horse serum.
All cultures and assays are conducted at 37° C. under an atmosphere of 5% CO2 in air.
After use the stocks are kept at −20° C. For the assays, the compound is further diluted to the appropriate concentration using complete medium.
Assays are performed in 96-well microtiter plates, each well containing 100 μl of culture medium with 8×10^3 bloodstream forms with or without a serial drug dilution. The highest concentration for the test compounds is 90 μg/ml. Seven 3-fold dilutions are used covering a range from 90 μg/ml to 0.123 μg/ml. Each drug is tested in duplicate and each assay is repeated at least once. […]
10 μl of Alamar Blue (12.5 mg resazurin dissolved in 100 ml distilled water) are now added to each well and the plates incubated for another 2 hours. Then the plates are read with a Spectramax Gemini XS microplate fluorometer (Molecular Devices Cooperation, Sunnyvale, Calif., USA) using an excitation wave length of 536 nm and an emission wave length of 588 nm. Data are analysed using the microplate reader software Softmax Pro (Molecular Devices Cooperation, Sunnyvale, Calif., USA). […]

Assay [5] has as its system T. b. brucei STIB 950. Nature of the assay: Trypanosoma brucei whole cell assay, secondary screen STIB 950. Particulars: STIB950.

≈ marks a conversion by molar mass, not a printed value.

As to `CCCCCCCCCCCCCCCCOP(=O)([O-])OCC[N+](C)(C)C` [Miltefosine], the IC50 in assay [1] came out at 325 ng/mL (≈ 0.797 µM); in assay [2], 120 ng/mL (≈ 0.294 µM).
In the case of `Nc1nc(N)nc(Nc2ccc([As]3SCC(CO)S3)cc2)n1` (centres unmarked) [melarsoprol], the values for the IC50 in assay [3], in assay [4] and in assay [5] were 4.2 ng/mL, 1.6 ng/mL and 2.8 ng/mL, respectively.

These data come from patent publication US7601702B2, “Dutpase Inhibitors” (Medivir AB, priority 2004, dated 2009).
